Test [1] concerns the target Tumour suppressor p53/oncoprotein Mdm2 (Homo sapiens, UniProt P04637+Q00987). The experiment in a line: Inhibition of p53-HDM2 (unknown origin) interaction. It counts as protein assay.
Another test has as its target T1, Estrogen receptor (Homo sapiens, UniProt P03372).
T1 sequence (P03372 whole entry): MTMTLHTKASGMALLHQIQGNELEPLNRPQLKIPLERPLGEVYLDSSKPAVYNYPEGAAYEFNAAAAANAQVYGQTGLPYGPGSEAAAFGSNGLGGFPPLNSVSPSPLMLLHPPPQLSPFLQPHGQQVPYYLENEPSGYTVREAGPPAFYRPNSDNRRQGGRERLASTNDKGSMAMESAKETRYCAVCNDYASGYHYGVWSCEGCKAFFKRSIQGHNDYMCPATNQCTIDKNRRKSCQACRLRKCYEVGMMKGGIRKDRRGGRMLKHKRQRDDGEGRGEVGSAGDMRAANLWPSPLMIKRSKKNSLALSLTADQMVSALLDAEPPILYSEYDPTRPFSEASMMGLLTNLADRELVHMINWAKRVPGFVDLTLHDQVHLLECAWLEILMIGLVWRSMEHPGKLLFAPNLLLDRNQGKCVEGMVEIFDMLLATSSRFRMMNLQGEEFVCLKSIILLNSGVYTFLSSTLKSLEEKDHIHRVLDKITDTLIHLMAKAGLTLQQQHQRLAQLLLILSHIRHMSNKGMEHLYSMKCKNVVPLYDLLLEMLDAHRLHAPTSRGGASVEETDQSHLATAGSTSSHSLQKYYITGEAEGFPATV
The experiment in a line: Binding affinity to ERalpha (unknown origin).

A further test concerns the target Bcl-2-like protein 1 (Homo sapiens, UniProt Q07817). The experiment in a line: Inhibition of BCL-xL-BH3 domain (unknown origin) interaction.
Test [2] concerns the target E3 ubiquitin-protein ligase Mdm2 (Homo sapiens, UniProt Q00987). Description: Binding affinity to MDM2 (unknown origin).
Test [3] addresses Menin/Histone-lysine N-methyltransferase MLL (Homo sapiens, UniProt O00255+Q03164). The experiment in a line: Inhibition of menin-MLL (unknown origin) interaction. It counts as protein assay.

pIC50, pKd, pKi: −log10 of the molar value. Starred links: 1 amine or outer side, 2 acyl side, 3 side chain; linkers in the order of their positions; H or OH if unused. Positions of bridges follow the written chain, without caps; N, C: chain ends. Non-standard residues stand in square brackets, D forms with d. Residues, ends and D or L forms follow the SMILES beside them. X1 = O=C([C@H]1CNC[C@@H]1N[*:1])[*:2]; X2 = O=C([C@H]1CCC[C@@H]1N[*:1])[*:2]

Chain of Tumour suppressor p53/oncoprotein Mdm2 (P04637 whole entry): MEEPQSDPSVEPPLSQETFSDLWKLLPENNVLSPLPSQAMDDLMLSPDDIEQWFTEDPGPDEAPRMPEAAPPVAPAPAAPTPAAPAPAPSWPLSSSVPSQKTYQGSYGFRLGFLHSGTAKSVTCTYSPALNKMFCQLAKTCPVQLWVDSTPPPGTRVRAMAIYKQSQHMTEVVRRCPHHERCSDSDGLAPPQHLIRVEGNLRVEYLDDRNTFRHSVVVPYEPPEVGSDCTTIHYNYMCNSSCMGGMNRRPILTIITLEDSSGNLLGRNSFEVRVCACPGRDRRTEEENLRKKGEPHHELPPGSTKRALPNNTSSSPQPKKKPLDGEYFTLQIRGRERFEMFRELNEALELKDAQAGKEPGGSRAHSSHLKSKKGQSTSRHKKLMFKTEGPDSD
Chain of Tumour suppressor p53/oncoprotein Mdm2 (Q00987 whole entry): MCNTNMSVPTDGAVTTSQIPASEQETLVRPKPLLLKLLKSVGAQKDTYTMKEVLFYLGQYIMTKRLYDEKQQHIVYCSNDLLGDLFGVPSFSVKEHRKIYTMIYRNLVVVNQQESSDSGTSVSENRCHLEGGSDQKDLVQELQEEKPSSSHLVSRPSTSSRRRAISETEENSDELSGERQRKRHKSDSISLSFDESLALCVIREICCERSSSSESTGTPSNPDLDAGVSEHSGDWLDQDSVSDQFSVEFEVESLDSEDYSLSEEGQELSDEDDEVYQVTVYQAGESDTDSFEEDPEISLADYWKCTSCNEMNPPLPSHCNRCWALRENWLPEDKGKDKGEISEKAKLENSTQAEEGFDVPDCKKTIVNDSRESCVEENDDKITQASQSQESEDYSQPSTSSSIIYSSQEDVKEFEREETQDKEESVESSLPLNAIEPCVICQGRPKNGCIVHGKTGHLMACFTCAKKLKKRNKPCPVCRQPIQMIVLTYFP
Chain of Bcl-2-like protein 1 (Q07817 whole entry, the tested form may be a part): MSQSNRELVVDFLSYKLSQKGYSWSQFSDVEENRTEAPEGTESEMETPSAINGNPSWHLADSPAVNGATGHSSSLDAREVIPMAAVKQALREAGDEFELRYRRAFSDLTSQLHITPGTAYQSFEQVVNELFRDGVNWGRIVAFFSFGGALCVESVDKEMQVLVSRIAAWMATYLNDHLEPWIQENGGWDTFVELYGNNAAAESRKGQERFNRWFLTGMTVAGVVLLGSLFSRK
Chain of E3 ubiquitin-protein ligase Mdm2 (Q00987 whole entry): as the sequence (Q00987 whole entry) above

The pIC50 is −log10 of the IC50, conventionally taken in molar units. A high value points to a low IC50. As to `CC(C)C[C@@H]1NC(=O)[C@H](Cc2c[nH]c3ccc(Cl)cc23)NC(=O)[C@H](CCC(=O)O)NC(=O)[C@H](Cc2ccccc2)NC(=O)[C@@H]2CCCN2C(=O)[C@H]2CCCN2C(=O)[C@H](Cc2ccccc2)NC(=O)[C@H](CCC(=O)O)NC(=O)[C@H](Cc2c[nH]c3ccccc23)NC(=O)[C@H](CC(=O)O)NC1=O`, the pIC50 in test [1] is 6.85. As to `CC(C)CCN(CC(=O)N(CCS(N)(=O)=O)CC(=O)N(CC(N)=O)Cc1ccc([N+](=O)[O-])cc1)C(=O)CN(CCCP(=O)(O)O)C(=O)CN(Cc1ccc([N+](=O)[O-])cc1)C(=O)CN(CCc1c[nH]c2ccccc12)C(=O)CN(CCCCP(=O)(O)O)C(=O)CN(Cc1ccc([N+](=O)[O-])cc1)C(=O)CN(CCc1ccccc1)C(=O)CNCc1ccc([N+](=O)[O-])cc1`, the pIC50 in test [1] was 5.18. What is called pKd is −log10 of the Kd, conventionally taken in molar units. In turn, `CC(=O)N[C@@H](Cc1cnc[nH]1)C(=O)N[C@@H](CCCCN)C(=O)N[C@@]1(C)CCCCCCCC[C@@](C)(C(=O)N[C@@H](CC(C)C)C(=O)N[C@@H](CCC(N)=O)C(=O)N[C@@H](CC(=O)O)C(=O)N[C@@H](CO)C(N)=O)NC(=O)[C@H](CCC(N)=O)NC(=O)[C@H](Cc2cnc[nH]2)NC(=O)[C@H](CC(C)C)NC1=O` had a pKd on Estrogen receptor of 6.45.

The term pKi denotes −log10 of the Ki, conventionally taken in molar units. `CC(=O)N[C@H]1CNC[C@@H]1C(=O)N[C@@H](C)C(=O)N[C@H]1CCC[C@@H]1C(=O)N[C@@H](CCCNC(=N)N)C(=O)N[C@H]1CCC[C@@H]1C(=O)N[C@@H](CC(C)C)C(=O)N[C@H]1CCC[C@@H]1C(=O)N[C@@H](CCCCN)C(=O)N[C@@H](CC(C)C)C(=O)NCC(=O)N[C@@H](CC(=O)O)C(=O)N[C@@H](C)C(=O)N[C@@H](Cc1ccccc1)C(=O)N[C@@H](CC(N)=O)C(=O)N[C@@H](CCCNC(=N)N)C(N)=O` (Ac-[X1]A[X2]R[X2]L[X2]KLGDAFNR-NH2) gave a pKi at Bcl-2-like protein 1 of 8.70. Turning to `CC(C)C[C@H](NC(=O)[C@@H]1CSSC[C@H](N)C(=O)N[C@@H](CC(N)=O)C(=O)N[C@H]2CSSC[C@H](NC(=O)[C@H](CC(C)C)NC(=O)[C@H](Cc3ccccc3)NC(=O)[C@H]([C@@H](C)O)NC(=O)[C@H](CCC(=O)O)NC(=O)[C@@H]3CCCN3C(=O)[C@H](C)NC(=O)[C@H](CCCCN)NC2=O)C(=O)N[C@@H](Cc2ccc(O)cc2)C(=O)N[C@@H](Cc2c[nH]c3ccccc23)C(=O)N[C@@H](CCCNC(=N)N)C(=O)N1)C(=O)N[C@@H](CCC(N)=O)C(=O)N[C@@H](Cc1cnc[nH]1)C(N)=O` (H-CNCKAPETFLCYWRCLQH-NH2; disulfide 1-15, 3-11), the pKd in test [2] was 4.75. Consider `CC(=O)N[C@@H](CCCNC(=N)N)C(=O)N[C@@H](Cc1c[nH]c2ccccc12)C(=O)NC1CCCCCCCNC(=O)[C@@H]2CCCN2C(=O)[C@H](CCCNC(=N)N)NC(=O)[C@H](C)NC(=O)[C@@H]2CCCN2C(=O)C(Cc2ccccc2)NC1=O` (single isomer, unassigned), for which the pKi in test [3] is 7.62.

The values are drawn from ChEMBL document CHEMBL3751840, “Peptide-based inhibitors of protein-protein interactions” (Bioorg Med Chem Lett, 2016).
